From patent US20080167272A1, “Thalidomide metabolites and methods of use” (Auckland Uniservices Limited, priority 2005, published 2008)

Key:
ECV304 cells = experiment: MTT cytotoxicity assay; assay type: cell-based, human; conditions: 18 h, 2-250/g/ml, vs untreated or DMSO-treated cultures
Description: The 3-(4,5-dimethylthiazol-2-yl)-2,5-diphenyl tetrazolium bromide (MTT) assay, which measures mitochondrial metabolic activity, was used to determine cell viability (Mosmann, 1983). Cells (4×10^3/well) were cultured with various concentrations of thalidomide, CG, PG and PiG in a final volume of 100 μl M199 medium (Gibco, Grand Island, N.Y., USA) supplemented with 10% foetal bovine serum ([…] streptomycin sulphate and 100 units/ml penicillin-G (Sigma, St Louis, Calif., USA) in flat-bottomed 96-well plates at 37° C. at 5% CO2 for 18 h. At the end of the incubation period, 10 μl of MTT (Sigma, St. Louis, Mo., 5 mg/ml in PBS) was added to each well, and the cells were further incubated for 2 h. The supernatants were then removed and the formazan crystals in the cells were dissolved by the addition of 100 μl of DMSO per well, and the absorbance at 590 nm was read using a plate reader. Each concentration of drug was tested in triplicate wells, and the mean ±standard error of the mean (SEM) was calculated.

Colon 38 tumours = experiment: Tumour growth delay, Colon 38 tumours in mice, combination with DMXAA; assay type: in vivo
Source text: Mice (C57B1/6 bred at the Animal Resources Unit, University of Auckland, New Zealand) were implanted with Colon 38 tumours, obtained originally from the Mason Research Institute (Auckland, New Zewaland) by transferring 1 mm^3 pieces of the tumour into a subcutaneous opening in the left flank of anaesthetized mice. The mice with tumours were used for growth delay experiments when tumours had reached approximately 3-5 mm in diameter. Mice were divided into 10 groups, an untreated control group, a group treated intraperitoneally (i.p.) with DMXAA (5,6-dimethylxanthenone-4-acetic acid, synthesized at the Auckland Cancer Society Research Centre—ACSRC (Auckland, New Zealand) at 25 mg/kg only, and 8 groups treated with DMXAA together with the hydrolytic thalidomide metabolites PG, PiG, CG also synthesized at the ACSRC as previously described (Lu et al, 2003), or thalidomide at 100 mg/kg, or together with CG or thalidomide at 20 mg/kg or 4 mg/kg. DMXAA was dissolved in saline at 2.5 mg/ml and injected i.p. into mice in a volume of 10 μl/g body weight. Thalidomide, PG, PiG and CG were dissolved in dimethylsulphoxide at 40, 8 or 1.6 mg/ml (for dosages of 100, 20, 4 mg/kg respectively) and injected i.p. in a volume of 2.5 μl/g body weight. Tumours were measured 2-3 times weekly after treatment and tumour volumes were calculated as 0.52×a^2×b, where a and b are the minor and major axes of the tumour. The arithmetic means and standard errors were calculated for each point, counting cured animals as having zero tumour volume, and expressed as fractions of the pre-treatment volume. Growth delay was determined as the difference in the number of days required for the tumour to reach four times the pre-treatment volume.

Structure (SMILES): O=C1CCC(NC(=O)c2ccccc2C(=O)O)C(=O)N1 (centres unmarked) [CG, 2-{[(2,6-Dioxo-3-piperidinyl)amino]carbonyl}benzoic acid]
- toxicity (cell viability, MTT) (ECV304 cells): No toxicity was observed
- potentiation of DMXAA-induced anti-tumour effects (Colon 38 tumours; 4 mg/kg co-administered with DMXAA 25 mg/kg, FIG. 1C): neither CG nor thalidomide showed potentiation
- tumour volumes at 21 days after treatment compared with DMXAA alone (Colon 38 tumours; 4 mg/kg co-administered with DMXAA 25 mg/kg, FIG. 2): no significant difference
- potentiation of DMXAA activity against Colon 38 tumours (Colon 38 tumours; 20 mg/kg co-administered with DMXAA 25 mg/kg, FIG. 1B): more effective than thalidomide plus DMXAA or DMXAA alone
- tumour volume at 21 days after treatment compared with DMXAA alone (Colon 38 tumours; 20 mg/kg co-administered with DMXAA 25 mg/kg, FIG. 2): significantly smaller tumour volume than those treated by DMXAA alone
- tumour volumes at 21 days after treatment compared with DMXAA alone (Colon 38 tumours; 100 mg/kg co-administered with DMXAA 25 mg/kg, FIG. 2): significantly smaller tumour volumes than those treated by DMXAA alone
- inhibition of tumour growth compared with DMXAA alone (Colon 38 tumours; 100 mg/kg i.p. co-administered with DMXAA 25 mg/kg, FIG. 1A): greater inhibition of tumour growth than that of DMXAA alone
- tumour growth inhibition compared with thalidomide (Colon 38 tumours; doses at or above 20 mg/kg, combined with DMXAA, FIGS. 1 & 2): greater tumour growth inhibition than thalidomide
